Results: US8048862B2, “Macrocyclic inhibitors of hepatitis C virus replication” (priority 2008, dated 2011)
Like-named read-outs stand apart in the source and are kept apart here.

Tests used:
hepatitis C replicon = hepatitis C replicon EC50; format: cell-based; conditions: Hepatitis C virus; Table 2; hepatitis C replicon; read-out: EC50
Excerpt: NS3-NS4 inhibition activity can be determined using known assay methods.

NS3/NS4 complexes = NS3/NS4 complexes (Hepatitis C virus genotype 1a, UniProt P27958); assay: NS3/NS4 inhibition activity (IC50); format: biochemical
Excerpt: NS3-NS4 inhibition activity can be determined using known assay methods. For example, NS3/NS4 complexes may be formed and inhibitory concentrations of test compounds determined as described in U.S. Patent Application Publication Number 2007/0054842 paragraph numbers 1497-1509, which is incorporated herein by reference in its entirety. Similarly, hepatitis C replicon EC50 may be determined using known assay methods such as described in U.S. Patent Application Publication Number 2007/0054842 paragraph numbers 1510-1515. Assays may be conducted at ambient temperature (23° C.) in assay buffer containing 50 mM Tris-HCl, pH 7.5, 15% glycerol, 0.6 mM Lauryldimethylamine Oxide (LDAO), 25 μM NS4A peptide, and 10 mM Dithiothreitol (DTT).

Sequence of NS3/NS4 complexes (P27958 1027-1657): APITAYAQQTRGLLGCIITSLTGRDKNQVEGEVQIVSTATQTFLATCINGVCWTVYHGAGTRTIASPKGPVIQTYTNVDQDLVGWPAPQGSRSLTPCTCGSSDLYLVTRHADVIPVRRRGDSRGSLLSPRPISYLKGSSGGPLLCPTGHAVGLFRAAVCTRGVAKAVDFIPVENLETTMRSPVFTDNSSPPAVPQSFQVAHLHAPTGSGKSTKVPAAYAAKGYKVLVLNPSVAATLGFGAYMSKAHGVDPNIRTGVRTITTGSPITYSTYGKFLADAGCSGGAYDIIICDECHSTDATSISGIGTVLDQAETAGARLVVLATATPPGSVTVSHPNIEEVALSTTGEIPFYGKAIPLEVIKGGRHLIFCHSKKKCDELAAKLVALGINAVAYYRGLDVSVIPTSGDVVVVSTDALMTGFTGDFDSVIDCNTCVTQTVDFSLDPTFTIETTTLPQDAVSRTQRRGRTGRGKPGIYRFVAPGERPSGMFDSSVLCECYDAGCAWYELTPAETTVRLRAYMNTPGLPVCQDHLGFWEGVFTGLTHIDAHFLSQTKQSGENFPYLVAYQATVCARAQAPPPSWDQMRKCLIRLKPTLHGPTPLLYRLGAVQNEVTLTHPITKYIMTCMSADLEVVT
Sequence of NS3/NS4 complexes (P27958 1658-1711): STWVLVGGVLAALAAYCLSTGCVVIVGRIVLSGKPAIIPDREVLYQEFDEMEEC

IC50 (NS3/NS4 complexes; Table 2, read-out: IC50) [nM]	Compound	also measured
75 to 500	O=C1N[C@]2(C(=O)O)C[C@H]2/C=C\CCCCC[C@H](Nc2cccc(F)c2)C(=O)N2C[C@H](Oc3nc4ccccc4s3)C[C@@H]12 [Compound 123]	–
75 to 500	COc1cccc(N[C@H]2CCCCC/C=C\[C@@H]3C[C@@]3(C(=O)O)NC(=O)[C@@H]3C[C@@H](Oc4nc5ccccc5s4)CN3C2=O)c1 [Compound 132]	–
10 to 75	O=C1N[C@]2(C(=O)O)C[C@H]2/C=C\CCCCC[C@H](Nc2cc(F)cc(C(F)(F)F)c2)C(=O)N2C[C@H](Oc3nc4ccccc4s3)C[C@@H]12 [Compound 321]	–
10 to 75	O=C1N[C@]2(C(=O)O)C[C@H]2/C=C\CCCCC[C@H](Nc2cc(F)cc(C(F)(F)F)c2)C(=O)N2C[C@H](Oc3nc4ccc(Cl)cc4s3)C[C@@H]12 [Compound 322]	–
10 to 75	O=C1N[C@]2(C(=O)O)C[C@H]2/C=C\CCCCC[C@H](Nc2cc(F)cc(F)c2)C(=O)N2C[C@H](Oc3nc4ccccc4s3)C[C@@H]12 [Compound 324]	–
10 to 75	O=C1N[C@]2(C(=O)O)C[C@H]2/C=C\CCCCC[C@H](Nc2ccc3ccccc3c2)C(=O)N2C[C@H](Oc3nc4ccccc4s3)C[C@@H]12 [Compound 327]	–
75 to 500	O=C1N[C@]2(C(=O)O)C[C@H]2/C=C\CCCCC[C@H](Nc2ccc(C(F)(F)F)cc2)C(=O)N2C[C@H](Oc3nc4ccccc4s3)C[C@@H]12 [Compound 329]	–
75 to 500	O=C1N[C@]2(C(=O)O)C[C@H]2/C=C\CCCCC[C@H](Nc2ccc(F)c(F)c2)C(=O)N2C[C@H](Oc3nc4ccccc4s3)C[C@@H]12 [Compound 343]	–
75 to 500	O=C1N[C@]2(C(=O)O)C[C@H]2/C=C\CCCCC[C@H](Nc2cc(Cl)cc(Cl)c2)C(=O)N2C[C@H](Oc3nc4ccccc4s3)C[C@@H]12 [Compound 344]	–

Second part, the compound before the results:

Compound	IC50 (NS3/NS4 complexes; Table 2, read-out: IC50) [nM]	also measured
O=C1N[C@]2(C(=O)O)C[C@H]2/C=C\CCCCC[C@H](Nc2ccccc2)C(=O)N2C[C@H](Oc3nc4ccccc4s3)C[C@@H]12 [Compound 101]	75 to 500	EC50 (hepatitis C replicon): > 500 nM
Cc1ccc2nc(O[C@@H]3C[C@H]4C(=O)N[C@]5(C(=O)O)C[C@H]5/C=C\CCCCC[C@H](Nc5cc(F)cc(C(F)(F)F)c5)C(=O)N4C3)sc2c1 [Compound 323]	< 10	–
COc1ccc2c(O[C@@H]3C[C@H]4C(=O)N[C@]5(C(=O)NS(=O)(=O)C6(C)CC6)C[C@H]5/C=C\CCCCC[C@H](Nc5cc(F)cc(C(F)(F)F)c5)C(=O)N4C3)cc(-c3ccccc3)nc2c1 [Compound 357]	10 to 75	–
COc1ccc2c(O[C@@H]3C[C@H]4C(=O)N[C@]5(C(=O)O)C[C@H]5/C=C\CCCCC[C@H](Nc5cccc(F)c5)C(=O)N4C3)cc(-c3nc(C(C)C)cs3)nc2c1C [Compound 448]	< 10	–
COc1ccc2c(O[C@@H]3C[C@H]4C(=O)N[C@]5(C(=O)NS(=O)(=O)C6(C)CC6)C[C@H]5/C=C\CCCCC[C@H](Nc5cccc(C(N)=O)c5)C(=O)N4C3)cc(-c3nc(C(C)C)cs3)nc2c1C [Compound 483]	–	EC50 (hepatitis C replicon): < 10 nM
COc1ccc2c(O[C@@H]3C[C@H]4C(=O)N[C@]5(C(=O)NS(=O)(=O)C6(C)CC6)C[C@H]5/C=C\CCCCC[C@H](Nc5cccc(NS(C)(=O)=O)c5)C(=O)N4C3)cc(-c3nc(C(C)C)cs3)nc2c1C [Compound 484]	–	EC50 (hepatitis C replicon): 10 to 75 nM
COc1ccc2c(O[C@@H]3C[C@H]4C(=O)N[C@]5(C(=O)NS(=O)(=O)C6(C)CC6)C[C@H]5/C=C\CCCCC[C@H](Nc5ccc(NC(C)=O)cc5)C(=O)N4C3)cc(-c3nc(C(C)C)cs3)nc2c1C [Compound 485]	–	EC50 (hepatitis C replicon): 10 to 75 nM
CC(C)(C)OC(=O)N[C@H]1CCCCC/C=C\[C@@H]2C[C@@]2(C(=O)NOc2ccccc2)NC(=O)[C@@H]2C[C@@H](Oc3nc4ccccc4s3)CN2C1=O [Compound 1020]	–	IC50 (NS3/NS4 complexes; Table 3, read-out: IC50): 10 to 100 nM
CC(C)(C)OC(=O)N[C@H]1CCCCC/C=C\[C@@H]2C[C@@]2(C(=O)NOc2ccccc2)NC(=O)[C@@H]2C[C@@H](Oc3nc4ccc(F)cc4s3)CN2C1=O [Compound 1021]	–	IC50 (NS3/NS4 complexes; Table 3, read-out: IC50): 10 to 100 nM
CC(C)(C)OC(=O)N[C@H]1CCCCC/C=C\[C@@H]2C[C@@]2(C(=O)NOc2ccccc2)NC(=O)[C@@H]2C[C@@H](Oc3nc4ccc(Br)cc4s3)CN2C1=O [Compound 1022]	–	IC50 (NS3/NS4 complexes; Table 3, read-out: IC50): > 100 nM
CC(C)(C)OC(=O)N[C@H]1CCCCC/C=C\[C@@H]2C[C@@]2(C(=O)NOc2ccccc2)NC(=O)[C@@H]2C[C@@H](Oc3nc4ccc(Cl)cc4s3)CN2C1=O [Compound 1023]	–	IC50 (NS3/NS4 complexes; Table 3, read-out: IC50): > 100 nM
Cc1ccc2nc(O[C@@H]3C[C@H]4C(=O)N[C@]5(C(=O)NOc6ccccc6)C[C@H]5/C=C\CCCCC[C@H](NC(=O)OC(C)(C)C)C(=O)N4C3)sc2c1 [Compound 1024]	–	IC50 (NS3/NS4 complexes; Table 3, read-out: IC50): > 100 nM
COc1ccc2nc(O[C@@H]3C[C@H]4C(=O)N[C@]5(C(=O)NOc6ccccc6)C[C@H]5/C=C\CCCCC[C@H](NC(=O)OC(C)(C)C)C(=O)N4C3)sc2c1 [Compound 1025]	–	IC50 (NS3/NS4 complexes; Table 3, read-out: IC50): > 100 nM
